BindingDB's records for doi:10.3109/14756366.2013.827678 (Qingdao University, 2014)
Several values for one entry are separate records, joined by “and”; a condition that tells them apart may be missing. Identical values can stand only once.

These molecules were tested against T1, Histone deacetylase 8 (Homo sapiens, UniProt Q9BY41) (assay: Enzyme inhibition assay).
T1 sequence (Q9BY41 whole entry): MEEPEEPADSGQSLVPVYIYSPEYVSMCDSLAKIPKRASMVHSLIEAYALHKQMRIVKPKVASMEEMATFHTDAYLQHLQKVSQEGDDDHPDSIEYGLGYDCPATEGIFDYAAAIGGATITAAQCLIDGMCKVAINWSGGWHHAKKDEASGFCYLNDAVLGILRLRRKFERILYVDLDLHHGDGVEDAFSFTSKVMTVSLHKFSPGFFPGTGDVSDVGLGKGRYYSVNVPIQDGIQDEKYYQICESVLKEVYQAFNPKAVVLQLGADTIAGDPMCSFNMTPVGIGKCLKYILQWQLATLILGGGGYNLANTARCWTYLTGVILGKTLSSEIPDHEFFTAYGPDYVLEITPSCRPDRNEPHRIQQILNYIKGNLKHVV
Method: The nucleus extract […] HDAC8 enzyme was expressed in Escherichia coli. Boc-Lys (acetyl)-AMC was used as the substrate of HDAC. SAHA which is the HDAC inhibitor on market was used as a positive control. The compounds were diluted to six concentrations (25, 5, 1, 0.2, 0.04 and 0.008 uM/L) to investigate their ability of inhibiting HDAC activity.

Row | Structure (SMILES) | IC50
1 | O=C(CCCCCNC(=O)c1ccc(NC(=O)N[C@H](C(=O)Nc2ccc(Cl)cc2Cl)c2ccccc2)cc1)NO [(S)-4-(3-(2-((2,4-dichlorophenyl)amino)-2-oxo-1-phenylethyl)ureido)-N-(6-(hydroxyamino)-6-oxohexyl)benzamide (L19)] | 1570 nM
2 | CC(C)c1cccc(C(C)C)c1NC(=O)[C@@H](NC(=O)Nc1ccc(C(=O)NCCCCCC(=O)NO)cc1)c1ccccc1 [(S)-4-(3-(2-((2,6-diisopropylphenyl)amino)-2-oxo-1-phenylethyl)ureido)-N-(6-(hydroxyamino)-6-oxohexyl)benzamide (L17)] | 1790 nM
3 | Cc1cc(C)cc(NC(=O)[C@@H](NC(=O)Nc2ccc(C(=O)NCCCCCC(=O)NO)cc2)c2ccccc2)c1 [(S)-4-(3-(2-((3,5-dimethylphenyl)amino)-2-oxo-1-phenylethyl)ureido)-N-(6-(hydroxyamino)-6-oxohexyl)benzamide (L13)] | 1660 nM
4 | CC(C)(C)c1ccc(NC(=O)[C@@H](NC(=O)Nc2ccc(C(=O)NCCCCCC(=O)NO)cc2)c2ccccc2)cc1 [(S)-4-(3-(2-((4-(tert-butyl)phenyl)amino)-2-oxo-1-phenylethyl)ureido)-N-(6-(hydroxyamino)-6-oxohexyl)benzamide (L4)] | 2340 nM
5 | O=C(CCCCCNC(=O)c1ccc(NC(=O)N[C@H](C(=O)NCc2ccc(F)cc2)c2ccccc2)cc1)NO [(S)-4-(3-(2-((4-fluorobenzyl)amino)-2-oxo-1-phenylethyl)ureido)-N-(6-(hydroxyamino)-6-oxohexyl)benzamide (L15)] | 1070 nM and 1210 nM
6 | O=C(CCCCCNC(=O)c1ccc(NC(=O)N[C@H](C(=O)Nc2ccc(F)cc2)c2ccccc2)cc1)NO [(S)-4-(3-(2-((4-fluorophenyl)amino)-2-oxo-1-phenylethyl)ureido)-N-(6-(hydroxyamino)-6-oxohexyl)benzamide (L3)] | 1770 nM
7 | O=C(CCCCCNC(=O)c1ccc(NC(=O)N[C@H](C(=O)NCc2ccccc2)c2ccccc2)cc1)NO [(S)-4-(3-(2-(benzylamino)-2-oxo-1-phenylethyl)ureido)-N-(6-(hydroxyamino)-6-oxohexyl)benzamide (L1)] | 1510 nM
8 | O=C(CCCCCNC(=O)c1ccc(NC(=O)N[C@H](C(=O)Nc2ccco2)c2ccccc2)cc1)NO [(S)-4-(3-(2-(furan-2-ylamino)-2-oxo-1-phenylethyl)ureido)-N-(6-(hydroxyamino)-6-oxohexyl)benzamide (L5)] | 1460 nM
9 | COc1ccccc1NC(=O)[C@@H](NC(=O)Nc1ccc(C(=O)NCCCCCC(=O)NO)cc1)c1ccccc1 [(S)-N-(6-(hydroxyamino)-6-oxohexyl)-4-(3-(2-((2-methoxyphenyl)amino)-2-oxo-1-phenylethyl)ureido)benzamide (L10)] | 1770 nM
10 | Cc1ccccc1NC(=O)[C@@H](NC(=O)Nc1ccc(C(=O)NCCCCCC(=O)NO)cc1)c1ccccc1 [(S)-N-(6-(hydroxyamino)-6-oxohexyl)-4-(3-(2-oxo-1-phenyl-2-(o-tolylamino)ethyl)ureido)benzamide (L6)] | 1340 nM
11 | Cc1ccc(NC(=O)[C@@H](NC(=O)Nc2ccc(C(=O)NCCCCCC(=O)NO)cc2)c2ccccc2)cc1 [(S)-N-(6-(hydroxyamino)-6-oxohexyl)-4-(3-(2-oxo-1-phenyl-2-(p-tolylamino)ethyl)ureido)benzamide (L9)] | 1870 nM
12 | CC(C)(C)OC(=O)NC(C(=O)Nc1ccc(C(=O)NO)cc1)c1ccccc1 (configuration not stated) [phenylglycine containing lead compound (4h)] | 1520 nM

Continued by falling IC50, values first:

Row | IC50 | Structure (SMILES)
13 | 1320 nM | O=C(CCCCCNC(=O)c1ccc(NC(=O)N[C@H](C(=O)Nc2ccccc2F)c2ccccc2)cc1)NO [(S)-4-(3-(2-((2-fluorophenyl)amino)-2-oxo-1-phenylethyl)ureido)-N-(6-(hydroxyamino)-6-oxohexyl)benzamide (L2)]
14 | 1320 nM | Cc1cccc(NC(=O)[C@@H](NC(=O)Nc2ccc(C(=O)NCCCCCC(=O)NO)cc2)c2ccccc2)c1 [(S)-N-(6-(hydroxyamino)-6-oxohexyl)-4-(3-(2-oxo-1-phenyl-2-(m-tolylamino)ethyl)ureido)benzamide (L18)]
15 | 1300 nM | O=C(CCCCCNC(=O)c1ccc(NC(=O)N[C@H](C(=O)Nc2ccccc2O)c2ccccc2)cc1)NO [(S)-N-(6-(hydroxyamino)-6-oxohexyl)-4-(3-(2-((2-hydroxyphenyl)amino)-2-oxo-1-phenylethyl)ureido)benzamide (L11)]
16 | 1280 nM | O=C(CCCCCNC(=O)c1ccc(NC(=O)N[C@H](C(=O)Nc2cccc(Cl)c2)c2ccccc2)cc1)NO [(S)-4-(3-(2-((3-chlorophenyl)amino)-2-oxo-1-phenylethyl)ureido)-N-(6-(hydroxyamino)-6-oxohexyl)benzamide (L12)]
17 | 967 nM | O=C(CCCCCNC(=O)c1ccc(NC(=O)N[C@H](C(=O)Nc2cccc(C(F)(F)F)c2)c2ccccc2)cc1)NO [(S)-N-(6-(hydroxyamino)-6-oxohexyl)-4-(3-(2-oxo-1-phenyl-2-((3-(trifluoromethyl)phenyl)amino)ethyl)ureido)benzamide (L8)]
